In patent US12448369B2 (Edgewise Therapeutics, Inc., priority 2023, dated 2025):

Test system: Rabbit Psoas myofibrils (skeletal myosin ATPase)
Assay: Myofibril ATPase assay, rabbit psoas (skeletal) myofibrils
Type: biochemical
Details: rabbit psoas myofibrils; Y75 value
Method in brief: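 Values derive from concentration–response fits of NADH consumption rates at 340 nm, normalized to vehicle-only wells, as Y75 or Y125. Myofibril ATP turnover was linked to NADH via PK/LDH in Ca/EGTA-buffered PIPES, pH 7.0, and read over 75 min.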

| SMILES | Skeletal EC25 [µM] |
| --- | --- |
| Cc1c(C(C)C(=O)N[C@@H](C)c2ccc(F)cc2F)c(=O)[nH]c2ccnc(C#N)c12 (stereo partly drawn) [compound 363] | 0.04 |
| Cc1ccc2[nH]c(=O)c(CC(=O)N[C@H](C)c3ncc(C#N)cc3F)c(C)c2n1 [compound 468] | 4.03 |
| C[C@H](NC(=O)Cc1cc2nc(F)ccc2[nH]c1=O)c1ccc(F)cc1F [compound 392] | 0.07 |
| Cc1nccc2[nH]c(=O)c(CC(=O)N[C@H](C)c3cccnc3)c(C)c12 (single isomer, unassigned) [compound 322] | 100.00 |
| Cc1cc(C#N)nnc1[C@@H](C)NC(=O)Cc1c(C)c2c(C)nccc2[nH]c1=O [compound 489] | 0.26 |
| Cc1c(CC(=O)N[C@@H](C)c2ccc(F)cc2F)c(=O)[nH]c2ccnc(OC3CC3)c12 [compound 386] | 0.03 |
| Cc1nccc2[nH]c(=O)c(CC(=O)N[C@H]3CCc4cc(F)cc(F)c43)c(C)c12 [compound 501] | 3.4 |
| Cc1c(CC(=O)N[C@@H](C)c2ccc(C#N)cn2)c(=O)[nH]c2ccc(C(F)(F)F)nc12 [compound 460] | 100.00 |
| Cc1nccc2[nH]c(=O)c(CC(=O)N[C@@H]3c4c(F)cc(F)cc4OC3(C)C)c(C)c12 (single isomer, unassigned) [compound 190] | 100.00 |
| COc1ccccc1[C@H](C)NC(=O)Cc1c(C)c2c(C)nccc2[nH]c1=O (single isomer, unassigned) [compound 319] | 100.00 |
| Cc1c(CC(=O)N[C@@H](C)c2ncc(C#N)cc2F)c(=O)[nH]c2ccnc(C(F)(F)F)c12 (single isomer, unassigned) [compound 227] | 0.07 |
| Cc1nccc2[nH]c(=O)c(CC(=O)N[C@H](C)c3ccc(C#N)cn3)c(C)c12 (single isomer, unassigned) [compound 253] | 100.00 |
| C[C@@H](NC(=O)Cc1c(C2CC2)c2cnccc2[nH]c1=O)c1ncc(C#N)cc1F [compound 142] | 100.00 |
| Cc1ncc(C#N)nc1C(C)NC(=O)Cc1c(C)c2c(C)nccc2[nH]c1=O (stereo not drawn) [compound 461] | 100.00 |
| Cc1c(CC(=O)N[C@@H](C)c2ccc(C#N)cc2F)c(=O)[nH]c2ccnc(C#N)c12 (single isomer, unassigned) [compound 283] | 0.01 |
| COc1ccc([C@@H](C)NC(=O)Cc2c(C)c3c(C)nccc3[nH]c2=O)cc1 (single isomer, unassigned) [compound 286] | 8.58 |
| Cc1c(CC(=O)N[C@H](C)c2ncc(F)cc2F)c(=O)[nH]c2ccnc(C#N)c12 (single isomer, unassigned) [compound 304] | 1.57 |
| COc1nccc2[nH]c(=O)c(CC(=O)N[C@@H](C)c3ccc(F)cc3F)c(C(F)(F)F)c12 [compound 423] | 0.34 |

Same assay, conditions: ‡ Y125 value, not a Y75 value (125% activity relative to no compound); rabbit psoas myofibrils

| SMILES | Skeletal EC25 |
| --- | --- |
| Cc1c(C(F)(F)C(=O)N[C@H](C)c2nccc(C#N)n2)c(=O)[nH]c2ccc(F)cc12 (single isomer, unassigned) [compound 2527] | 100.00‡ μM |

Target: T1, Porcine ventricle myofibrils (ventricular myosin ATPase) (Sus scrofa, UniProt P79293)
T1 construct: Myofibrils from porcine cardiac muscle was isolated from the left ventricle of Yucatan minipigs; tissue Exemplar Genetics; host or cells: left ventricle of Yucatan minipigs, myofibrils prepared in house
Assay: Myofibril ATPase assay, porcine ventricle myofibrils
Type: biochemical, porcine (Yucatan minipigs)
Details: Y75 value (no ‡ mark); porcine ventricle myofibrils
Method in brief: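 Read-out: A340 kinetic, NADH consumption coupled to ADP via PK-LDH, 75 min. Yucatan minipig LV myofibrils, pCa buffer (PIPES/CaCl2/EGTA, pH 7.0). Linear-regression slope (mAU/min), vehicle = 100%, 4PL fit; Y75 or Y125 reported.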

T1 sequence (P79293 whole entry): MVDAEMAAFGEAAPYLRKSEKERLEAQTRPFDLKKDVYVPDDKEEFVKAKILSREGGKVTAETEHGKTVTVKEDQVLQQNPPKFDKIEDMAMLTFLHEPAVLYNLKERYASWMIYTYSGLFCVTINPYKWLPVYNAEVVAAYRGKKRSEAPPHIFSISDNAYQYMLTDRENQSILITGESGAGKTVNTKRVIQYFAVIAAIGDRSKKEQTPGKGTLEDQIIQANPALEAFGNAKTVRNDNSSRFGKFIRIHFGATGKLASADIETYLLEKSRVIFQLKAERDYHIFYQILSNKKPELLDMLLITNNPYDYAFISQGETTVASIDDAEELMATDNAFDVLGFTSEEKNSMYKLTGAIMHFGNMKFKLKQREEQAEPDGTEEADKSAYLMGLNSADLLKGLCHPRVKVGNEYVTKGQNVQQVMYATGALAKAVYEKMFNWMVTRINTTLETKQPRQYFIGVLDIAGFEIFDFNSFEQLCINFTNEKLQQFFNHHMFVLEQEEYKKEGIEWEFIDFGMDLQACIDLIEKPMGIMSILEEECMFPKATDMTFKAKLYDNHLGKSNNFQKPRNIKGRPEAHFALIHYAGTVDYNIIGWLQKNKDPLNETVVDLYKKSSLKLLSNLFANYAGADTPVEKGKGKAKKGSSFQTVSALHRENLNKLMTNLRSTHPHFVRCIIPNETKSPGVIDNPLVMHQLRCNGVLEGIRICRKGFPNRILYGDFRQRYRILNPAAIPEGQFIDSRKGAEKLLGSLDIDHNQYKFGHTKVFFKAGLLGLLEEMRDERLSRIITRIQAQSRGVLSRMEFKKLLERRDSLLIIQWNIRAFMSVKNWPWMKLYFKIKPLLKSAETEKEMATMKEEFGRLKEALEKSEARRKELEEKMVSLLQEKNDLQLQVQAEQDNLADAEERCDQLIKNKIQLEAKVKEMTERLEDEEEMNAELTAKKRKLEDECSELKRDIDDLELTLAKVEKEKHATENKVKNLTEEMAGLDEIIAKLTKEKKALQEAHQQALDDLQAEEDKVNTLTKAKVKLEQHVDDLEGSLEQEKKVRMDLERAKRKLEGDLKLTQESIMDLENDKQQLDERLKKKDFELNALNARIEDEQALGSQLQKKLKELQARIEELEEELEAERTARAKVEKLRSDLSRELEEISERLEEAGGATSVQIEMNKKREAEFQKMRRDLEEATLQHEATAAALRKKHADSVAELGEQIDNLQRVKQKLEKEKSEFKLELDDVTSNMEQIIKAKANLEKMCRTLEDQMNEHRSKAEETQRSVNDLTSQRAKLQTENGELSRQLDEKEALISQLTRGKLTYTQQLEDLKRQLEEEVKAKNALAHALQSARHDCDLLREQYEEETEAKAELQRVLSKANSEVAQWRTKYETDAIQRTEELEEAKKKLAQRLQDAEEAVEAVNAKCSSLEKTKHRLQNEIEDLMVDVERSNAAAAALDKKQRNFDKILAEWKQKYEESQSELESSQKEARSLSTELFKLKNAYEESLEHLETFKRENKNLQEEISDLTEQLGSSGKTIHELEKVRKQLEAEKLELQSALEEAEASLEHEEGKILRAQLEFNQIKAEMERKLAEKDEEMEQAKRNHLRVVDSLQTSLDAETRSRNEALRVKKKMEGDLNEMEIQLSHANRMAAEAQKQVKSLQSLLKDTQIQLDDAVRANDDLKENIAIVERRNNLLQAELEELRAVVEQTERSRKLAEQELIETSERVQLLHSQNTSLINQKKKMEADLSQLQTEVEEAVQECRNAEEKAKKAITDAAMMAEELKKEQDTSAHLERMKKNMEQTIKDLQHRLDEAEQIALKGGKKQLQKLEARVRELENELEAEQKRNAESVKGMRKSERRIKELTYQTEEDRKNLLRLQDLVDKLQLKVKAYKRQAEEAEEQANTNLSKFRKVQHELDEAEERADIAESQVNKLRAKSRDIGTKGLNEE

| SMILES | Ventricular EC25 [µM] |
| --- | --- |
| Cc1c(C(F)(F)C(=O)N[C@H](C)c2nccc(C#N)n2)c(=O)[nH]c2ccc(F)cc12 (single isomer, unassigned) [compound 2527] | 100.00 |

Same assay, conditions: porcine ventricle myofibrils; Y75 value

| SMILES | Ventricular EC25 [µM] |
| --- | --- |
| Cc1c(C(C)C(=O)N[C@@H](C)c2ccc(F)cc2F)c(=O)[nH]c2ccnc(C#N)c12 (stereo partly drawn) [compound 363] | 2.83 |
| Cc1ccc2[nH]c(=O)c(CC(=O)N[C@H](C)c3ncc(C#N)cc3F)c(C)c2n1 [compound 468] | 1.48 |
| C[C@H](NC(=O)Cc1cc2nc(F)ccc2[nH]c1=O)c1ccc(F)cc1F [compound 392] | 2.65 |
| Cc1nccc2[nH]c(=O)c(CC(=O)N[C@H](C)c3cccnc3)c(C)c12 (single isomer, unassigned) [compound 322] | 100.00 |
| Cc1cc(C#N)nnc1[C@@H](C)NC(=O)Cc1c(C)c2c(C)nccc2[nH]c1=O [compound 489] | 0.57 |
| Cc1c(CC(=O)N[C@@H](C)c2ccc(F)cc2F)c(=O)[nH]c2ccnc(OC3CC3)c12 [compound 386] | 1.51 |
| Cc1nccc2[nH]c(=O)c(CC(=O)N[C@H]3CCc4cc(F)cc(F)c43)c(C)c12 [compound 501] | 78 |
| Cc1c(CC(=O)N[C@@H](C)c2ccc(C#N)cn2)c(=O)[nH]c2ccc(C(F)(F)F)nc12 [compound 460] | 30.78 |
| Cc1nccc2[nH]c(=O)c(CC(=O)N[C@@H]3c4c(F)cc(F)cc4OC3(C)C)c(C)c12 (single isomer, unassigned) [compound 190] | 45.62 |
| COc1ccccc1[C@H](C)NC(=O)Cc1c(C)c2c(C)nccc2[nH]c1=O (single isomer, unassigned) [compound 319] | 100.00 |
| Cc1c(CC(=O)N[C@@H](C)c2ncc(C#N)cc2F)c(=O)[nH]c2ccnc(C(F)(F)F)c12 (single isomer, unassigned) [compound 227] | 0.62 |
| Cc1nccc2[nH]c(=O)c(CC(=O)N[C@H](C)c3ccc(C#N)cn3)c(C)c12 (single isomer, unassigned) [compound 253] | 100.00 |
| C[C@@H](NC(=O)Cc1c(C2CC2)c2cnccc2[nH]c1=O)c1ncc(C#N)cc1F [compound 142] | 100.00 |
| Cc1ncc(C#N)nc1C(C)NC(=O)Cc1c(C)c2c(C)nccc2[nH]c1=O (stereo not drawn) [compound 461] | 15.98 |
| Cc1c(CC(=O)N[C@@H](C)c2ccc(C#N)cc2F)c(=O)[nH]c2ccnc(C#N)c12 (single isomer, unassigned) [compound 283] | 0.10 |
| COc1ccc([C@@H](C)NC(=O)Cc2c(C)c3c(C)nccc3[nH]c2=O)cc1 (single isomer, unassigned) [compound 286] | 100.00 |
| Cc1c(CC(=O)N[C@H](C)c2ncc(F)cc2F)c(=O)[nH]c2ccnc(C#N)c12 (single isomer, unassigned) [compound 304] | 100.00 |
| COc1nccc2[nH]c(=O)c(CC(=O)N[C@@H](C)c3ccc(F)cc3F)c(C(F)(F)F)c12 [compound 423] | 100.00 |

Test system: Porcine atria myofibrils (atrial myosin ATPase)
Assay: Myofibril ATPase assay, porcine atria myofibrils
Type: biochemical
Details: Y75 value (no ‡ mark); porcine atria myofibrils
Method in brief: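 Atrial myofibril ATPase measured by NADH-coupled absorbance at 340 nm; vehicle-normalized slopes fitted to give Y75 or Y125 values.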

| SMILES | Atrial EC25 [µM] |
| --- | --- |
| Cc1c(C(F)(F)C(=O)N[C@H](C)c2nccc(C#N)n2)c(=O)[nH]c2ccc(F)cc12 (single isomer, unassigned) [compound 2527] | 4.73 |

Same assay, conditions: porcine atria myofibrils; Y75 value (75% activity relative to no compound)

| SMILES | Atrial EC25 [µM] |
| --- | --- |
| Cc1c(C(C)C(=O)N[C@@H](C)c2ccc(F)cc2F)c(=O)[nH]c2ccnc(C#N)c12 (stereo partly drawn) [compound 363] | 0.36 |
| Cc1ccc2[nH]c(=O)c(CC(=O)N[C@H](C)c3ncc(C#N)cc3F)c(C)c2n1 [compound 468] | 0.80 |
| C[C@H](NC(=O)Cc1cc2nc(F)ccc2[nH]c1=O)c1ccc(F)cc1F [compound 392] | 0.13 |
| Cc1nccc2[nH]c(=O)c(CC(=O)N[C@H](C)c3cccnc3)c(C)c12 (single isomer, unassigned) [compound 322] | 100.00 |
| Cc1cc(C#N)nnc1[C@@H](C)NC(=O)Cc1c(C)c2c(C)nccc2[nH]c1=O [compound 489] | 1.00 |
| Cc1c(CC(=O)N[C@@H](C)c2ccc(F)cc2F)c(=O)[nH]c2ccnc(OC3CC3)c12 [compound 386] | 0.12 |
| Cc1nccc2[nH]c(=O)c(CC(=O)N[C@H]3CCc4cc(F)cc(F)c43)c(C)c12 [compound 501] | 76 |
| Cc1c(CC(=O)N[C@@H](C)c2ccc(C#N)cn2)c(=O)[nH]c2ccc(C(F)(F)F)nc12 [compound 460] | 1.53 |
| Cc1nccc2[nH]c(=O)c(CC(=O)N[C@@H]3c4c(F)cc(F)cc4OC3(C)C)c(C)c12 (single isomer, unassigned) [compound 190] | 8.11 |
| COc1ccccc1[C@H](C)NC(=O)Cc1c(C)c2c(C)nccc2[nH]c1=O (single isomer, unassigned) [compound 319] | 100.00 |
| Cc1c(CC(=O)N[C@@H](C)c2ncc(C#N)cc2F)c(=O)[nH]c2ccnc(C(F)(F)F)c12 (single isomer, unassigned) [compound 227] | 0.09 |
| Cc1nccc2[nH]c(=O)c(CC(=O)N[C@H](C)c3ccc(C#N)cn3)c(C)c12 (single isomer, unassigned) [compound 253] | 100.00 |
| C[C@@H](NC(=O)Cc1c(C2CC2)c2cnccc2[nH]c1=O)c1ncc(C#N)cc1F [compound 142] | 100.00 |
| Cc1ncc(C#N)nc1C(C)NC(=O)Cc1c(C)c2c(C)nccc2[nH]c1=O (stereo not drawn) [compound 461] | 94.45 |
| Cc1c(CC(=O)N[C@@H](C)c2ccc(C#N)cc2F)c(=O)[nH]c2ccnc(C#N)c12 (single isomer, unassigned) [compound 283] | 0.04 |
| COc1ccc([C@@H](C)NC(=O)Cc2c(C)c3c(C)nccc3[nH]c2=O)cc1 (single isomer, unassigned) [compound 286] | 45.61 |
| Cc1c(CC(=O)N[C@H](C)c2ncc(F)cc2F)c(=O)[nH]c2ccnc(C#N)c12 (single isomer, unassigned) [compound 304] | 17.26 |
| COc1nccc2[nH]c(=O)c(CC(=O)N[C@@H](C)c3ccc(F)cc3F)c(C(F)(F)F)c12 [compound 423] | 100.00 |
